Assay [1] has as its target T1, CDK2 (Homo sapiens, UniProt P24941).
T1 construct: HEK293 clonal lines with CRISPR KI HiBiT tag on CDK2 proteins; host or cells: HEK293 clonal line, CRISPR knock-in HiBiT-CDK2, stably expressing LgBiT
In words: HiBiT assay (CDK2 degradation). It is filed as cell-based. Particulars: HEK293 clonal line with CRISPR KI HiBiT tag on CDK2, 24 hours, HiBiT Lysis Reagent. The procedure:
HEK293 clonal lines with CRISPR KI HiBiT tag on CDK2 proteins and stably expressing LgBiT protein were obtained from Promega (Madison, WI). Cells were plated at 5000 cells per well using Multiflo (BioTek) in 384-well white solid bottom plates (Corning, 3570BC) in 25 ul volume in DMEM media (DMEM, high glucose, HEPES, no phenol red (ThermoFisher Scientific, 21063029)) containing 10% FBS (Corning, 35-075-CV), 1% Penicillin/Streptomycin (ThermoFisher Scientific, 15140-122). Cells were incubated for 16 hours at 37° C., 5% CO2. 75 nL of a compound at 30 μM were dosed into the plate using an Echo® 650 liquid handler (Labcyte). Cells were incubated at 37° C., 5% CO2 for 24 hours. 5 ul of HiBiT Lysis Reagent (Promega, N3030) is added using Combi Multidrop (ThermoFisher Scientific), plates are incubated for 15′ at 37° C., 5% CO2 and then signal was read on a Pherastar FSX using “LUM plus” optic module.
Analysis was performed in Scinamic (Scinamic, Cambridge, MA). Luminescence response (R) was calculated by the formula: response=100*(S−N)/(P−N) where S is the signal of the well, N and P the mean negative and positive control values respectively of the same plate. The luminescence response was then fitted in Scinamic using a 3-parameter agonist logistic fit (hillslope=1, EC50>0, top/bottom unconstrained).
Background: HiBiT is a short tag that completes a luciferase, so light tracks the accessible tagged protein.

For assay [2], the target named is CRBN-DDB1 (Homo sapiens, UniProt Q96SW2). In words: Compound binding to CRBN by HTRF assay. Particulars: CRBN-DDB1 2.5 nM, Cy5-Thalidomide 100 nM, 30 min; Ki from geometric mean IC50 by Cheng-Prustoff transformation. A digest of the protocol: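 HTRF displacement of Cy5-thalidomide probe (100 nM) from His-CRBN-DDB1 (2.5 nM) with anti-His terbium cryptate, in HEPES/NaCl/TCEP/EDTA/Tween20 buffer. 10-point 1:3 compound series, 30 min at ambient temperature; signal normalised to DMSO and lenalidomide controls, IC50 fitted and Ki derived by Cheng-Prusoff.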
CRBN-DDB1, sequence (Q96SW2 whole entry): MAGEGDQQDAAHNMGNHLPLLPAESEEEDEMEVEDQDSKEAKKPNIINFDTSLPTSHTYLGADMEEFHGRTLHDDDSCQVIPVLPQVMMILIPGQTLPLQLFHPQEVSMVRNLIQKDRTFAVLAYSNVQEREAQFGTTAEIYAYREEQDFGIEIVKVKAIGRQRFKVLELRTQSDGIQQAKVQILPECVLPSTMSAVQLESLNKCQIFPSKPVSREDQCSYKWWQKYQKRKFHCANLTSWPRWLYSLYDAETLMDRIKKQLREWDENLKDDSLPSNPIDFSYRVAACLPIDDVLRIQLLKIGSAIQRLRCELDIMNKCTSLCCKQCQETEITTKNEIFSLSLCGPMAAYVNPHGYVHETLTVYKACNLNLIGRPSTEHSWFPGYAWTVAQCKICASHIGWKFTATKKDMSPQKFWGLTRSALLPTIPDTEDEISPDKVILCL
CRBN-DDB1, sequence (Q16531 whole entry partner): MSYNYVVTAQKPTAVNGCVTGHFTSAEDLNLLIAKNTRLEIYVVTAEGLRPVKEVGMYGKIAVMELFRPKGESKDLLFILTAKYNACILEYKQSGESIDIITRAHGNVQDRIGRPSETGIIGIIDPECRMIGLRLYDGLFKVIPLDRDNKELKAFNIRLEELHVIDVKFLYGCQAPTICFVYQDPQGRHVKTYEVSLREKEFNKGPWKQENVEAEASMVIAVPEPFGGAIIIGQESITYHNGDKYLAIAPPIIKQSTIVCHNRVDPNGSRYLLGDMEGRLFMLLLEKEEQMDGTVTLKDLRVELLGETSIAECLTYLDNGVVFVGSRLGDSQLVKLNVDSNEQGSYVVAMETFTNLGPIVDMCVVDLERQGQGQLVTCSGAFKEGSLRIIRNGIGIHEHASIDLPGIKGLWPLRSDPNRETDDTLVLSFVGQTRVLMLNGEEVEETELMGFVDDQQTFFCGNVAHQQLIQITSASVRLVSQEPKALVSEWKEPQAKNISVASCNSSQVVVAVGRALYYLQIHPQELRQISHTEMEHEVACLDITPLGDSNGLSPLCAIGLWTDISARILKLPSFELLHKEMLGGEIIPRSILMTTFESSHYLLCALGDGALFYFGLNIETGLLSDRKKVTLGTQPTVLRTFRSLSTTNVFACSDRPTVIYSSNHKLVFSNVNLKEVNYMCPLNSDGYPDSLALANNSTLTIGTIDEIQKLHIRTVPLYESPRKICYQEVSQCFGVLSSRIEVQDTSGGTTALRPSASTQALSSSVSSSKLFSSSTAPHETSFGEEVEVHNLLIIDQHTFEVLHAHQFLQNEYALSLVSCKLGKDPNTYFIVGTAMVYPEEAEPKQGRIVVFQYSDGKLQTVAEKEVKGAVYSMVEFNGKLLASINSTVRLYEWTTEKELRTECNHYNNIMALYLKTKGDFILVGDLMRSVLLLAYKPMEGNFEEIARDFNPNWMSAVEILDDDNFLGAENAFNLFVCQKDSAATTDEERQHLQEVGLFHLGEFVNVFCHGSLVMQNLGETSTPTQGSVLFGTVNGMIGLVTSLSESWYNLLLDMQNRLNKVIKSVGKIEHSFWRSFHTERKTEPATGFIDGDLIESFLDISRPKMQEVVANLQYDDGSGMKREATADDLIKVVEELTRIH

With `CC1(C)CC(OC(=O)NCc2ccc3c(c2)C(=O)N(C2CCC(=O)NC2=O)C3)C1` (stereo not drawn) [Compound 31, 3,3-dimethylcyclobutyl N-{[2-(2,6-dioxopiperidin-3-yl)-3-oxo-2,3-dihydro-1H-isoindol-5-yl]methyl}carbamate], in assay [1], the Dmax (as a rule, the largest share of the target that was removed) fell in the range of 10 to 50%. The Ki – broadly, a dissociation constant, usually derived from enzyme kinetics or from competition with a known ligand – in assay [2] is 100 to 1000 nM.

Consider `CC1(COC(=O)NCc2ccc3c(c2)C(=O)N(C2CCC(=O)NC2=O)C3)CCCO1` (stereo not drawn) [Compound 22, (2-methyloxolan-2-yl)methyl N-{[2-(2,6-dioxopiperidin-3-yl)-3-oxo-2,3-dihydro-1H-isoindol-5-yl]methyl}carbamate], for which the Dmax in assay [1] is ≤ 10%. This compound registered a Ki in assay [2] of 100 to 1000 nM.

Consider `O=C1CCC(N2Cc3ccc(CNC(=O)OC[C@H]4CCCO4)cc3C2=O)C(=O)N1` (stereo partly drawn) [Compound 29, [(2R)-oxolan-2-yl]methyl N-{[2-(2,6-dioxopiperidin-3-yl)-3-oxo-2,3-dihydro-1H-isoindol-5-yl]methyl}carbamate], for which, in assay [1], the Dmax is ≤ 10%. In assay [2], the Ki was ≤ 100 nM.

Compound `O=C1CCC(N2Cc3ccc(CNC(=O)OC4Cc5ccccc54)cc3C2=O)C(=O)N1` (stereo not drawn) [Compound 35, bicyclo[4.2.0]octa-1,3,5-trien-7-yl N-{[2-(2,6-dioxopiperidin-3-yl)-3-oxo-2,3-dihydro-1H-isoindol-5-yl]methyl}carbamate] gave a Dmax in assay [1] of 10 to 50%. In addition, the Ki in assay [2] was ≤ 100 nM.

In turn, `CC(C)C1CCC(OC(=O)NCc2ccc3c(c2)C(=O)N(C2CCC(=O)NC2=O)C3)CC1` (stereo not drawn) [Compound 89, 4-(propan-2-yl)cyclohexyl N-{[2-(2,6-dioxopiperidin-3-yl)-3-oxo-2,3-dihydro-1H-isoindol-5-yl]methyl}carbamate] registered a Dmax in assay [1] of 50 to 80%. In addition, the Ki in assay [2] lay in the range of 100 to 1000 nM.

In the case of `O=C1CCC(N2Cc3ccc(CNC(=O)O[C@@H]4CCC[C@H]4c4ccccc4)cc3C2=O)C(=O)N1` (mixture of isomers) [Compound 26, rac-(1R,2S)-2-phenylcyclopentyl N-{[2-(2,6-dioxopiperidin-3-yl)-3-oxo-2,3-dihydro-1H-isoindol-5-yl]methyl}carbamate], the Dmax in assay [1] fell in the range of 10 to 50%. For the same compound, the inhibition constant Ki in assay [2] was ≤ 100 nM.

On to `C[C@H](OC(=O)NCc1ccc2c(c1)C(=O)N(C1CCC(=O)NC1=O)C2)C1CC1` (stereo partly drawn) [Compound 28, (1S)-1-cyclopropylethyl N-{[2-(2,6-dioxopiperidin-3-yl)-3-oxo-2,3-dihydro-1H-isoindol-5-yl]methyl}carbamate], for which the Dmax in assay [1] fell in the range of 10 to 50%. Besides, in assay [2], the Ki was 100 to 1000 nM.

For the compound `O=C1CCC(N2Cc3ccc(CNC(=O)OCC4CCOC4)cc3C2=O)C(=O)N1` (stereo not drawn) [Compound 43, (oxolan-3-yl)methyl N-{[2-(2,6-dioxopiperidin-3-yl)-3-oxo-2,3-dihydro-1H-isoindol-5-yl]methyl}carbamate], in assay [1], the Dmax lay in the range of 10 to 50%. Also, the Ki in assay [2] was ≤ 100 nM.

`O=C1CCC(N2Cc3ccc(CNC(=O)OCC4CCCCO4)cc3C2=O)C(=O)N1` (stereo not drawn) [Compound 41, (oxan-2-yl)methyl N-{[2-(2,6-dioxopiperidin-3-yl)-3-oxo-2,3-dihydro-1H-isoindol-5-yl]methyl}carbamate] returned a Dmax in assay [1] of 10 to 50%. In assay [2], the Ki was 100 to 1000 nM.

Regarding `O=C1CCC(N2Cc3ccc(CNC(=O)OCC4C(F)(F)C45CC5)cc3C2=O)C(=O)N1` (stereo not drawn) [Compound 86, {2,2-difluorospiro[2.2]pentan-1-yl}methyl N-{[2-(2,6-dioxopiperidin-3-yl)-3-oxo-2,3-dihydro-1H-isoindol-5-yl]methyl}carbamate], the Dmax in assay [1] lay in the range of 50 to 80%. Also, the Ki in assay [2] was ≤ 100 nM.

Turning to `CN1C(=O)CCC1COC(=O)NCc1ccc2c(c1)C(=O)N(C1CCC(=O)NC1=O)C2` (stereo not drawn) [Compound 36, (1-methyl-5-oxopyrrolidin-2-yl)methyl N-{[2-(2,6-dioxopiperidin-3-yl)-3-oxo-2,3-dihydro-1H-isoindol-5-yl]methyl}carbamate], the greatest degradation seen (Dmax) in assay [1] is ≤ 10%. In assay [2], the Ki is ≤ 100 nM.

For the compound `O=C1CCC(N2Cc3ccc(CNC(=O)OC4CCOC4)cc3C2=O)C(=O)N1` (stereo not drawn) [Compound 13, oxolan-3-yl N-{[2-(2,6-dioxopiperidin-3-yl)-3-oxo-2,3-dihydro-1H-isoindol-5-yl]methyl}carbamate], the Dmax in assay [1] is ≤ 10%. This compound also registered a Ki in assay [2] of 100 to 1000 nM.

Consider `CN1CCC(OC(=O)NCc2ccc3c(c2)C(=O)N(C2CCC(=O)NC2=O)C3)C1` (stereo not drawn) [Compound 40, 1-methylpyrrolidin-3-yl N-{[2-(2,6-dioxopiperidin-3-yl)-3-oxo-2,3-dihydro-1H-isoindol-5-yl]methyl}carbamate], for which the Dmax in assay [1] is ≤ 10%. In addition, the Ki in assay [2] fell in the range of 100 to 1000 nM.

In turn, `CC1(COC(=O)NCc2ccc3c(c2)C(=O)N(C2CCC(=O)NC2=O)C3)CCCCO1` (stereo not drawn) [Compound 64, (2-methyloxan-2-yl)methyl N-{[2-(2,6-dioxopiperidin-3-yl)-3-oxo-2,3-dihydro-1H-isoindol-5-yl]methyl}carbamate] yielded a Dmax in assay [1] of 10 to 50%. In assay [2], the Ki is ≤ 100 nM.

`O=C1CCC(N2Cc3ccc(CNC(=O)OCC4CC45CCOCC5)cc3C2=O)C(=O)N1` (stereo not drawn) [Compound 52, {6-oxaspiro[2.5]octan-1-yl}methyl N-{[2-(2,6-dioxopiperidin-3-yl)-3-oxo-2,3-dihydro-1H-isoindol-5-yl]methyl}carbamate] had a Dmax in assay [1] of 10 to 50%. Besides, the Ki in assay [2] fell in the range of 100 to 1000 nM.

For `CC(C)(CCOC(=O)NCc1ccc2c(c1)C(=O)N(C1CCC(=O)NC1=O)C2)C1CC1` (stereo not drawn) [Compound 69, 3-cyclopropyl-3-methylbutyl N-{[2-(2,6-dioxopiperidin-3-yl)-3-oxo-2,3-dihydro-1H-isoindol-5-yl]methyl}carbamate], the Dmax in assay [1] lay in the range of 50 to 80%. The Ki in assay [2] was ≤ 100 nM.

As to `O=C1CCC(N2Cc3ccc(CNC(=O)OCC4CC5(CCC5)C4)cc3C2=O)C(=O)N1` (stereo not drawn) [Compound 2, spiro[3.3]heptan-2-ylmethyl ((2-(2,6-dioxopiperidin-3-yl)-3-oxoisoindolin-5-yl)methyl)carbamate], the Dmax in assay [1] fell in the range of 50 to 80%. This compound came in with a Ki in assay [2] of 100 to 1000 nM.

With `O=C1CCC(N2Cc3ccc(CNC(=O)OC[C@@H]4C[C@@H]5C=C[C@H]4CC5)cc3C2=O)C(=O)N1` (mixture of isomers) [Compound 70, rac-[(1R,2R,4R)-bicyclo[2.2.2]oct-5-en-2-yl]methyl N-{[2-(2,6-dioxopiperidin-3-yl)-3-oxo-2,3-dihydro-1H-isoindol-5-yl]methyl}carbamate], the Dmax in assay [1] fell in the range of 50 to 80%. The Ki in assay [2] was ≤ 100 nM.

In assay [1], `CC(C)C1CC(COC(=O)NCc2ccc3c(c2)C(=O)N(C2CCC(=O)NC2=O)C3)C1` (stereo not drawn) [Compound 20, [3-(propan-2-yl)cyclobutyl]methyl N-{[2-(2,6-dioxopiperidin-3-yl)-3-oxo-2,3-dihydro-1H-isoindol-5-yl]methyl}carbamate] gave a maximal degradation (Dmax) of 10 to 50%. Moreover, in assay [2], the Ki is ≤ 100 nM.

As for `CC1(C)CCC(OC(=O)NCc2ccc3c(c2)C(=O)N(C2CCC(=O)NC2=O)C3)CC1` (stereo not drawn) [Compound 1, 4,4-dimethylcyclohexyl ((2-(2,6-dioxopiperidin-3-yl)-3-oxoisoindolin-5-yl)methyl)carbamate], in assay [1], the Dmax was 10 to 50%. Further, the Ki in assay [2] lay in the range of 100 to 1000 nM.

For the compound `CN1CCC(COC(=O)NCc2ccc3c(c2)C(=O)N(C2CCC(=O)NC2=O)C3)C1` (stereo not drawn) [Compound 39, (1-methylpyrrolidin-3-yl)methyl N-{[2-(2,6-dioxopiperidin-3-yl)-3-oxo-2,3-dihydro-1H-isoindol-5-yl]methyl}carbamate], the maximal degradation (Dmax) in assay [1] is ≤ 10%. Besides, in assay [2], the inhibitory constant (Ki) was in the range of 100 to 1000 nM.

Regarding `O=C1CCC(N2Cc3ccc(CNC(=O)O[C@@H]4CO[C@@H]4c4ccccc4)cc3C2=O)C(=O)N1` (mixture of isomers) [Compound 37, rac-(2R,3R)-2-phenyloxetan-3-yl N-{[2-(2,6-dioxopiperidin-3-yl)-3-oxo-2,3-dihydro-1H-isoindol-5-yl]methyl}carbamate], the Dmax in assay [1] was ≤ 10%. The Ki in assay [2] fell in the range of 100 to 1000 nM.

`O=C1CCC(N2Cc3ccc(CNC(=O)OCC4OCCc5ccccc54)cc3C2=O)C(=O)N1` (stereo not drawn) [Compound 19, (3,4-dihydro-1H-2-benzopyran-1-yl)methyl N-{[2-(2,6-dioxopiperidin-3-yl)-3-oxo-2,3-dihydro-1H-isoindol-5-yl]methyl}carbamate]: the Dmax in assay [1] is ≤ 10%. Also, the Ki in assay [2] is ≤ 100 nM.

Take `O=C1CCC(N2Cc3ccc(CNC(=O)O[C@@H]4C[C@H]5CC[C@@H]4O5)cc3C2=O)C(=O)N1` (mixture of isomers) [Compound 27, rac-(1R,2S,4S)-7-oxabicyclo[2.2.1]heptan-2-yl N-{[2-(2,6-dioxopiperidin-3-yl)-3-oxo-2,3-dihydro-1H-isoindol-5-yl]methyl}carbamate]: the Dmax in assay [1] was ≤ 10%. In assay [2], this compound displayed an inhibitory constant (Ki) of 100 to 1000 nM.

For the origin of these results see patent publication US20240317706A1, “COMPOUNDS THAT MEDIATE PROTEIN DEGRADATION AND METHODS OF USE THEREOF” (Monte Rosa Therapeutics, Inc., priority 2021, published 2024).
